From patent US20060205743A1, “Protein kinase inhibitors” (priority 2003, published 2006) come the findings set out here.

SMILES strings stand for the structures.

MAPKAP-K2, sequence (P49137 whole entry): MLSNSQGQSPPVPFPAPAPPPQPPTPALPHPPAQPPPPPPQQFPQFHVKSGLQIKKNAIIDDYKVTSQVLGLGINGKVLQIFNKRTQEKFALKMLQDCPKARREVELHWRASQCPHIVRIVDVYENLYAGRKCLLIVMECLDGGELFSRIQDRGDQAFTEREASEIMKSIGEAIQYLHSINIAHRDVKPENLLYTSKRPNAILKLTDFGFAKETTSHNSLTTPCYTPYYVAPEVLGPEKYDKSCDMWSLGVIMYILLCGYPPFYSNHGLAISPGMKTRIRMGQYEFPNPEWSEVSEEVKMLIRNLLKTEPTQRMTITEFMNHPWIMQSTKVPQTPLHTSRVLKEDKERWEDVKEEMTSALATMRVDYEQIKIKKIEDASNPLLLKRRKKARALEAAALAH

This assay deals with MAPKAP-K2 (Homo sapiens, UniProt P49137). Kind of assay: MAPKAP-Kinase 2 Assay (33P-ATP peptide phosphorylation, filter plate). It counts as biochemical. Set-up: key: +: active; ++: more active; +++: very active. Conditions: assays conducted at typically 1-100 μM. How it is done:
MAPKAP-Kinase 2 Assay [Compound Preparation]
Compounds are dissolved in DMSO at a concentration of 3 mM and stored in aliquots at −20° C. Compounds in DMSO from these stock aliquots are diluted in 30% DMSO to produce initial working stock solutions of 1 mM and 3 mM. Both of these stock solutions are then subjected to 1:10 serial dilutions in 30% DMSO in order to prepare 3000, 1000, 300, 100, 30, 10, 3, 1, 0.1, 0.01 μM stock solutions. 5 μl of each stock solution is used per 50 μl reaction to give final assay concentrations of 300, 100, 30, 10, 3, 1, 0.3, 0.1, 0.01, 0.001 μM.
The kinase reaction is conducted in a round-bottomed polypropylene 96-well plate. MAPKAP-K2 is diluted to 25 mU/μl in diluent buffer (50 mM Tris/HCl. pH7.5, 0.1 mM EGTA, 0.1% (v/v) β-mercaptoethanol, 1 mg/ml BSA). 5 μl compound or 30% DMSO is added to each well followed by 25 μl substrate cocktail (10 μM ATP, 30 μM peptide (KKLNRTLSVA), 0.5 μCi ^33P-γ-ATP in 50 mM Tris pH7.5, 0.1 mM EGTA, 10 mM Mg-acetate, 0.1% BME). The reaction is initiated with the addition of 20 μl enzyme solution per well or 20 μl diluent buffer without enzyme. The plate is shaken for 10 sec and then left at room temperature for 30 min. The reaction is terminated with 50 μl 150 mM phosphoric acid. 90 μl of the reaction mixture is then transferred into a 96-well P81 filter plate (Millipore) and incubated at room temperature for 5 min. The filter plate is then washed 4 times with 200 μl 75 mM phosphoric acid per well on a plate vacuum manifold (Millipore) and dried in an oven for 2-3 h. Packard MicroScint ‘0’ (30 μl) is then added to each well, the plate is mixed for 30 min and subjected to liquid scintillation counting on a Packard TopCount.
[Interpretation] %Control=(X−B)/(Tot−B)×100 %Inhibition=100−% Control X=cpm of the test compound wells B=cpm of wells without enzyme Tot=cpm of wells with DMSO vehicle only
For `N[C@H]1CC[C@H](Nc2cc(Nc3ccccc3F)n3nccc3n2)CC1` [Compound 66], the MAPKAP-K2 activity entry is “+++”. In the case of `NC1CCC(Nc2cc(Nc3ccc(Oc4ccc(Cl)cc4)cc3)n3nccc3n2)CC1` (stereo not drawn) [Compound 41], the MAPKAP-K2 activity result is reported as “+++”. The value for `COc1ccccc1Nc1cc(NC2CCC(N)CC2)nc2ccnn12` (stereo not drawn) [Compound 47] was “++”; that for `NC1CCC(Nc2cc(Nc3ccc4c(c3)OCO4)n3nccc3n2)CC1` (stereo not drawn) [Compound 51] was “+++”; that for `Cc1ccc(Nc2cc(N[C@H]3CC[C@H](N)CC3)nc3ccnn23)cc1C` [Compound 77] was “+++”.

`CNC(=O)NC1CCC(Nc2cc(Nc3ccc(F)c(Cl)c3)n3nccc3n2)CC1` (stereo not drawn) [Compound 38]: the MAPKAP-K2 activity entry was “+”. Turning to `C=C(C)CNc1cc(NC2CCC(N)CC2)nc2ccnn12` (stereo not drawn) [Compound 58], the MAPKAP-K2 activity result is reported as “+++”. `N[C@H]1CC[C@H](Nc2cc(Nc3ccc(F)cc3F)n3nccc3n2)CC1` [Compound 22]: the MAPKAP-K2 activity result is recorded as “+++”. The value for `Fc1ccc(Nc2cc(NC3CCC(NCc4ccccc4)CC3)nc3ccnn23)cc1Cl` (stereo not drawn) [Compound 120] was “+”. As for `N[C@H]1CC[C@H](Nc2cc(Nc3ccc(Cl)cc3)n3nccc3n2)CC1` [Compound 12], the MAPKAP-K2 activity entry is listed as “+++”. On to `NCCCCNc1cc(Nc2ccc(F)c(Cl)c2)n2nccc2n1` [Compound 78], for which the MAPKAP-K2 activity result is “+”.

With `Fc1ccc(Nc2cc(NC3CCC(NCc4ccoc4)CC3)nc3ccnn23)cc1Cl` (stereo not drawn) [Compound 128], the MAPKAP-K2 activity result is reported as “++”. `NC1CCC(Nc2cc(NCCOc3ccccc3)n3nccc3n2)CC1` (stereo not drawn) [Compound 31]: the MAPKAP-K2 activity result is on record as “+”. As to `CN1CCN(Nc2cc(Nc3ccc(F)c(Cl)c3)n3nccc3n2)CC1` [Compound 50], the MAPKAP-K2 activity result was “+”. Take `NC1CCC(Nc2cc(Nc3ccc(F)cc3Cl)n3nccc3n2)CC1` (stereo not drawn) [Compound 108]: the MAPKAP-K2 activity entry is “+++”.

Consider `CNCCNc1cc(Nc2ccc(F)c(Cl)c2)n2nccc2n1` [Compound 86], for which the MAPKAP-K2 activity result is reported as “++”. With `Fc1ccc(Nc2cc(NC3CCC(NC4CCCCC4)CC3)nc3ccnn23)cc1Cl` (stereo not drawn) [Compound 134], the MAPKAP-K2 activity entry is “++”. `CN(C)c1ccc(Nc2cc(N[C@H]3CC[C@H](N)CC3)nc3ccnn23)cc1` [Compound 15]: the MAPKAP-K2 activity result is given as “+++”. `Fc1ccc(Nc2cc(NC3CCC(NCC4CCCCC4)CC3)nc3ccnn23)cc1Cl` (stereo not drawn) [Compound 126]: the MAPKAP-K2 activity result is “+”. For `Cc1cccc(Nc2cc(NC3CCC(N)CC3)nc3ccnn23)c1` (stereo not drawn) [Compound 44], the MAPKAP-K2 activity entry is recorded as “+++”. For the molecule `CC(CN(C)C)N[C@H]1CC[C@H](Nc2cc(Nc3ccc(F)c(Cl)c3)n3nccc3n2)CC1` (stereo partly drawn) [Compound 137], the MAPKAP-K2 activity result is listed as “+”. The value for `Fc1ccc(Nc2cc(NC3CCC(NCCc4ccccc4)CC3)nc3ccnn23)cc1Cl` (stereo not drawn) [Compound 121] was “++”.

Consider `Fc1ccc(Nc2cc(NC3CCCNC3)nc3ccnn23)cc1Cl` (stereo not drawn) [Compound 74], for which the MAPKAP-K2 activity result was “+++”. Turning to `CC(C)Oc1ccc(Nc2cc(NC3CCC(N)CC3)nc3ccnn23)c(F)c1` (stereo not drawn) [Compound 113], the MAPKAP-K2 activity entry is “+++”.

Take `CCOc1cccc(Nc2cc(N[C@H]3CC[C@H](N)CC3)nc3ccnn23)c1` [Compound 65]: the MAPKAP-K2 activity entry is recorded as “+++”. Regarding `Fc1ccc(Nc2cc(NC3CCC(NCCCCCc4ccccc4)CC3)nc3ccnn23)cc1Cl` (stereo not drawn) [Compound 132], the MAPKAP-K2 activity entry is “++”. Consider `CCOc1ccc(Nc2cc(NC3CCC(N)CC3)nc3ccnn23)cc1` (stereo not drawn) [Compound 35], for which the MAPKAP-K2 activity result was “+++”. For `Fc1ccc(Nc2cc(NC3CCC(NCc4ccsc4)CC3)nc3ccnn23)cc1Cl` (stereo not drawn) [Compound 129], the MAPKAP-K2 activity entry is “++”. `CC(C)(C)c1ccc(Nc2cc(NC3CCC(N)CC3)nc3ccnn23)cc1` (stereo not drawn) [Compound 34]: the MAPKAP-K2 activity result is “++”. The value for `O=C(Nc1ccccc1)NC1CCC(Nc2cc(Nc3ccc(F)c(Cl)c3)n3nccc3n2)CC1` (stereo not drawn) [Compound 49] was “+”; that for `NC1CCC(Nc2cc(Nc3ccc(Oc4cccc(C(F)(F)F)c4)cc3)n3nccc3n2)CC1` (stereo not drawn) [Compound 42] was “+++”. As for `NC1CCC(Nc2cc(Nc3ccccc3C(F)(F)F)n3nccc3n2)CC1` (stereo not drawn) [Compound 93], the MAPKAP-K2 activity result is given as “++”. With `N[C@H]1CC[C@H](Nc2cc(Nc3cccc(Cl)c3)n3nccc3n2)CC1` [Compound 11], the MAPKAP-K2 activity entry is on record as “+++”. Regarding `Cc1cccc(C)c1Nc1cc(NC2CCC(N)CC2)nc2ccnn12` (stereo not drawn) [Compound 45], the MAPKAP-K2 activity result is reported as “++”. Turning to `CN(CCN)c1cc(Nc2ccc(F)c(Cl)c2)n2nccc2n1` [Compound 80], the MAPKAP-K2 activity result is “+”.

On to `N[C@H]1CC[C@H](Nc2cc(Nc3ccc(O)cc3)n3nccc3n2)CC1` [Compound 70], for which the MAPKAP-K2 activity result is given as “+++”. In the case of `CNC(=S)N[C@H]1CC[C@H](Nc2cc(Nc3ccc(F)c(Cl)c3)n3nccc3n2)CC1` [Compound 57], the MAPKAP-K2 activity entry is listed as “+”.

For `CC(C)=CCCC(C)=CCNc1cc(NC2CCC(N)CC2)nc2ccnn12` (stereo not drawn) [Compound 115], the MAPKAP-K2 activity result is reported as “+++”. As to `Fc1ccc(Nc2cc(NC3CCC(NCCCCc4ccccc4)CC3)nc3ccnn23)cc1Cl` (stereo not drawn) [Compound 131], the MAPKAP-K2 activity entry is on record as “++”.

For `N[C@H]1CC[C@H](Nc2cc(Nc3ccc(Cl)c(Cl)c3)n3nccc3n2)CC1` [Compound 3], the MAPKAP-K2 activity entry is “+++”. In the case of `NC1CCC(Nc2cc(Nc3ccc(Br)cc3)n3nccc3n2)CC1` (stereo not drawn) [Compound 84], the MAPKAP-K2 activity entry is recorded as “+++”. The value for `COc1ccc(Nc2cc(NC3CCC(N)CC3)nc3ccnn23)c(OC)c1OC` (stereo not drawn) [Compound 103] was “++”; that for `NC1CCC(Nc2cc(Nc3ccc4c(c3)OC(F)(F)O4)n3nccc3n2)CC1` (stereo not drawn) [Compound 55] was “++”. The value for `Fc1ccc(Nc2cc(N[C@H]3CC[C@H](NC4CCC(c5ccccc5)CC4)CC3)nc3ccnn23)cc1Cl` (stereo partly drawn) [Compound 138] was “+”; that for `COc1ccc(Cl)c(Nc2cc(NC3CCC(N)CC3)nc3ccnn23)c1` (stereo not drawn) [Compound 99] was “+++”; that for `N[C@H]1CC[C@H](Nc2cc(Nc3cccc(OCc4ccccc4)c3)n3nccc3n2)CC1` [Compound 64] was “+++”. For `COc1ccc(Nc2cc(N[C@H]3CC[C@H](N)CC3)nc3ccnn23)cc1Cl` [Compound 5], the MAPKAP-K2 activity entry was “+++”. Regarding `CCN[C@H]1CC[C@H](Nc2cc(Nc3ccc(F)c(Cl)c3)n3nccc3n2)CC1` [Compound 89], the MAPKAP-K2 activity result is “+++”.

Regarding `COc1ccc(Nc2cc(NC3CCC(N)CC3)nc3ccnn23)c(C)c1` (stereo not drawn) [Compound 114], the MAPKAP-K2 activity result was “++”. On to `NC1CCC(Nc2cc(NCCc3ccccc3)n3nccc3n2)CC1` (stereo not drawn) [Compound 29], for which the MAPKAP-K2 activity result is “++”. Next, `Fc1ccc(Nc2cc(NC3CCNC3)nc3ccnn23)cc1Cl` (stereo not drawn) [Compound 73]: “++”; `CC(Nc1cc(N[C@H]2CC[C@H](N)CC2)nc2ccnn12)c1ccc(F)cc1` (stereo partly drawn) [Compound 24]: “+”; `NC1CCN(c2cc(Nc3ccc(F)c(Cl)c3)n3nccc3n2)CC1` [Compound 95]: “+”. Next, `NC1CCC(Nc2cc(Nc3ccc(I)cc3)n3nccc3n2)CC1` (stereo not drawn) [Compound 85]: “+++”; `Cc1cccc(Nc2cc(N[C@H]3CC[C@H](N)CC3)nc3ccnn23)c1C` [Compound 76]: “+++”.

Turning to `CCOc1cccc(Nc2cc(NC3CCCNC3)nc3ccnn23)c1` (stereo not drawn) [Compound 105], the MAPKAP-K2 activity entry is on record as “+++”. `N[C@H]1CC[C@H](Nc2cc(Nc3ccc4c(c3)OC(F)(F)O4)n3nccc3n2)CC1` [Compound 4]: the MAPKAP-K2 activity entry is on record as “++”. Next, `Ic1cccc(Nc2cc(NC3CCCNC3)nc3ccnn23)c1` (stereo not drawn) [Compound 140]: “+++”; `N[C@H]1CC[C@H](Nc2cc(Nc3cccc(Br)c3)n3nccc3n2)CC1` [Compound 83]: “+++”. The value for `N[C@H]1CC[C@H](Nc2cc(Nc3ccc(F)c(Cl)c3)n3nccc3n2)CC1` [Compound 18] was “+”; that for `CN[C@H]1CC[C@H](Nc2cc(Nc3ccc(F)c(Cl)c3)n3nccc3n2)CC1` [Compound 87] was “+++”; that for `Fc1ccc(Nc2cc(NC3CCC(NCCCc4ccccc4)CC3)nc3ccnn23)cc1Cl` (stereo not drawn) [Compound 124] was “++”.

Consider `N[C@H]1CC[C@H](Nc2cc(Nc3ccc(C(F)(F)F)cc3)n3nccc3n2)CC1` [Compound 20], for which the MAPKAP-K2 activity result is listed as “+++”.
